Reference: PubChem BioAssay AID434933 (The Scripps Research Institute Molecular Screening Center, 2010)
Where “and” joins values, the source holds several entries; their conditions need not be identical. Equal values may be shown once. Calls of active or inactive are those of the source.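 How the source made its calls: active means compound with HepG2 cell viability IC50 of 10 micromolar or lower; inactive means IC50 above 10 micromolar.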

Each molecule was assayed on HepG2 viability, CellTiter-Glo ATP luminescence (assay: HepG2 viability loss – cell-based, luminescence, dose response, cytotoxicity control for TPT1 inhibitor project, late-stage follow-up (AID 434933)).

SMILES	IC50
Cc1ccccc1N1C(=O)/C(=C/c2ccco2)C(=O)NC1=S	> 79.4 µM (inactive) and 36.6 µM (inactive)
NS(=O)(=O)c1cc(C(=O)NC2CCSc3ccccc32)ccc1Cl (stereo not given)	> 79.4 µM (inactive)
NC(=O)c1cc[n+](CC2=C(C(=O)O)N3C(=O)[C@@H](NC(=O)C(c4ccccc4)S(=O)(=O)O)[C@H]3SC2)cc1 (stereo not given in full)	> 79.4 µM (inactive)
Cc1[nH]n(-c2ccc(S(=O)(=O)O)cc2)c(=O)c1N[N-]c1ccc(C2=CC(=O)/C(=N\[N-]c3ccc4c(S(=O)(=O)O)cc(S(=O)(=O)O)c(N)c4c3O)C=C2)cc1O.[Cu+].[Cu+]	53.6 µM (inactive)
Cc1cc(C)n(Cc2ccc(C(=O)NN=Cc3ccc(-c4ccc([N+](=O)[O-])cc4)o3)o2)n1	72.7 µM (inactive)
OC(Cn1cncn1)(Cn1cncn1)c1ccc(F)cc1F	> 79.4 µM (inactive)
COc1ccc(OC)c(N2C(=O)/C(=C/c3ccco3)C(=O)NC2=S)c1	> 79.4 µM (inactive)
CC1=C(C#N)C(=O)N(C2CCS(=O)(=O)C2)C(=O)/C1=C\c1ccco1 (stereo not given)	> 79.4 µM (inactive)
O=c1oc2c(O)c(O)cc3c(=O)oc4c(O)c(O)cc1c4c23	> 79.4 µM (inactive)
Cc1ccc(N2C(=O)NC(=O)/C(=C\c3ccc([N+](=O)[O-])o3)C2=O)cc1	53.5 µM (inactive)
